Data: publication PMC3025356, “Mechanism of the Ca^2+-Dependent Interaction between S100A4 and Tail Fragments of Nonmuscle Myosin Heavy Chain IIA” (Journal of Molecular Biology, 2011)
Like-named read-outs stand apart in the source and are kept apart here.

Legend:
[1] = Stopped-flow tyrosine fluorescence, Ca^2+ dissociation from S100A4 constructs; type: binding
Description: (§1) Stopped-flow measurements were carried out using an SX18-MV apparatus (Applied Photophysics Ltd., Leatherhead, UK) with a dead time of 1.5 ms.[40] Records were generally captured on a logarithmic time base. Absorption (turbidity) measurements were usually recorded using a 10-mm pathlength, while fluorescence was recorded with a 2-mm pathlength for excitation and emission. The stated concentrations of components refer to the reaction chamber after mixing, unless otherwise indicated. Tyrosine fluorescence was excited at 280 nm, and the emission was collected through a UG11 bandpass filter plus a 305-nm longpass filter.[18] Fluorescein fluorescence was excited at 480 nm, and the emission was detected through a 515-nm longpass filter. Quin-2 fluorescence was measured by excitation at 336 nm, and emission was collected with a 455-nm longpass filter. For simultaneous recording of light scatter, a second channel was monitored through a UG11 filter. Rate constants were obtained by fitting to single-exponential or double-exponential functions using Kaleidagraph (Synergy Software) or Applied Photophysics Pro-Data software. Modeling of kinetic schemes was performed using Berkeley Madonna software.
Dissociation of Ca2+ from wild type S100A4 (black), Y19F mutant (blue) and Y75F mutant (red) monitored by tyrosine fluorescence. 13 M of each S100A4 construct plus 100 µM Ca2+ was mixed with 200 µM EGTA (reaction chamber concentrations) and the tyrosine fluorescence monitored. The buffer was 20 mM NaCl, 10 mM HEPES, 2 mM DTT at pH 7.5 and 20 °C. Fits to a single exponential function yielded rate constants of 20 s-1, 113 s-1 and 45 s-1 for wild-type, Y19F mutant and Y75F mutant respectively. (d) Dissociation of Ca2+ from wild type S100A4 (black), E33Q mutant (blue) and D63N mutant (red) monitored by tyrosine fluorescence. 13 M of each S100A4 construct plus 15 M Ca2+ was mixed with 200 M EGTA (reaction chamber concentrations) and the tyrosine fluorescence monitored. Fits to a single exponential function yielded rate constants of 22 s-1 and 49 s-1 for wild-type and E33Q construct respectively, while that […]
The records for the mutants were vertically offset for clarity in both […]

[2] = Stopped-flow Quin-2 fluorescence, Ca^2+ dissociation from / binding to S100A4 constructs (no target)
Excerpt: In order to increase the signal-to-noise ratio of the Ca^2+ dissociation transients, we used Quin-2 as combined fluorescent indicator and high-affinity chelator.[19,20] These measurements confirmed that Ca^2+ dissociated from wild-type protein with a rate constant of 16 s^− 1 (Fig. 3a; cf. 20 s^− 1 for the tyrosine signal). Given the poor signal-to-noise ratio of the tyrosine signal, the difference is barely significant but may reflect the fact that the Quin-2 signal represents at least a two-step sequential reaction (Ca^2+ dissociation from S100AS4, followed by rapid binding to Quin-2).
Fig. 3 (a) Dissociation of Ca^2+ from wild-type S100A4 (black), E33Q mutant (blue), and D63N mutant (red), as monitored by Quin-2 fluorescence. […] The records for the mutants were vertically offset for clarity. (b) Ca^2+ binding to S100A4 as determined from the amplitude of the resolved transient (k ≈ 20 s^− 1) when 6.5 μM S100A4 was preincubated with various added [Ca^2+] and then mixed with 100 μM Quin-2. The amplitude was converted into a bound concentration from an independent calibration using the same Quin-2 solution and known free [Ca^2+]. […] While either model could account for the data, the measured stoichiometry from ITC (Table 1) favors the cooperative model.
as §1

## S100A4: recombinant S100A4 expressed in E. coli BL21(DE3)
[1]; 13 μM S100A4 + 15 μM Ca^2+ mixed with 200 μM EGTA
  Ca^2+ dissociation rate constant (tyrosine): 22 s^− 1
[1]; 13 μM S100A4 + 100 μM Ca^2+ mixed with 200 μM EGTA, 20 mM NaCl, 10 mM Hepes, 2 mM DTT, pH 7.5, 20 °C
  Ca^2+ dissociation rate constant (tyrosine): 20 s^− 1
[2]; 10 μM S100A4 + 50 μM Ca^2+ mixed with 100 μM Quin-2, pH 7.5, 20 °C
  kobs, Ca^2+ dissociation, no target (k− 1): 17 s^− 1
[2]; model for Fig. 3b data, read-out: Kd, EF2 site (alternative model)
  Kd: 5 µM
[2]; model for Fig. 3b data, read-out: Kd, first Ca^2+ at EF2 of dimer (cooperative model)
  Kd: 100 µM
[2]; model for Fig. 3b data, read-out: Kd, second Ca^2+ at EF2 of dimer (cooperative model)
  Kd: 1.7 µM
[2]; no added Ca^2+, excess Quin-2
  amplitude without added Ca^2+: 0.1 mol of Ca^2+ per mole of S100A4 monomer
  rate constant without added Ca^2+: around 1 s^− 1
[2]; optically silent EF1 model for Fig. 3b data, read-out: Kd, EF1 site (alternative model)
  Kd: 0.25 µM
[2]; resolved signal, 6.5 μM S100A4, 100 μM Quin-2
  Ca^2+ bound per monomer from calibrated Quin-2 amplitude: one Ca^2+ bound per S100A4 monomer
[2]; single exponential fit, no target
  Ca^2+ dissociation rate constant (Quin-2): 16 s^− 1
[2]; some preparations
  rate constant of second slow phase of Ca^2+ dissociation: 0.4–4 s^− 1
